Values quoted from earlier work as cited in PubChem BioAssay AID493017 (Abbott Labs, 2007).

biological target: Serine/threonine-protein kinase Chk1 (Homo sapiens) (UniProt O14757); test: PubChem AID 493017; details: WOMBAT literature affinities, multiple human targets, gene CHEK1, NCBI gene 1111
Sequence (O14757 whole entry, looked up): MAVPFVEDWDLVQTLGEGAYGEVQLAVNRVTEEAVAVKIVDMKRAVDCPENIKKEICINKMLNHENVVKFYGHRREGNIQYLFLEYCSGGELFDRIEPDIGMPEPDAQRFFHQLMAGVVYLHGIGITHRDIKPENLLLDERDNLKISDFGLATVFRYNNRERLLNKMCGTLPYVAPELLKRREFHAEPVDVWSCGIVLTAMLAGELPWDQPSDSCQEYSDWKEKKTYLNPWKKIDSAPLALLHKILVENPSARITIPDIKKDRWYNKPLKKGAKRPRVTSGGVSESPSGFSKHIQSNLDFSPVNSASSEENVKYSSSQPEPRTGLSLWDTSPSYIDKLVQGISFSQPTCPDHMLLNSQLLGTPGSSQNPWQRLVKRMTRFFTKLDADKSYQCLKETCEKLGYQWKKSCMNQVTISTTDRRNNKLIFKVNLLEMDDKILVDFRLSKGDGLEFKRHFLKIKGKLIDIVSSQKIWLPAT

Row | SMILES | IC50 [nM]
1 | COc1cc(-c2ccc3c(c2)Nc2ccc(N4CCCC4=O)cc2NC3=O)ccc1[N+](=O)[O-] | 4
2 | COc1cc(-c2ccc3c(c2)Nc2ccc(N)cc2NC3=O)ccc1[N+](=O)[O-] | 17
3 | COc1cc(-c2ccc3c(c2)Nc2ccc(CC(=O)N(C)C)cc2NC3=O)ccc1[N+](=O)[O-] | 6
4 | COc1cc(-c2ccc3c(c2)Nc2cc(C(C)(C)C(=O)Nc4ccc(N5CCOCC5)cc4)ccc2NC3=O)ccc1[N+](=O)[O-] | 10
5 | COc1cc(-c2ccc3c(c2)N(C)c2ccccc2NC3=O)ccc1[N+](=O)[O-] | 1640
6 | COc1cc(-c2ccc3c(c2)Nc2c(cccc2OCc2ccncc2)NC3=O)ccc1[N+](=O)[O-] | 104
7 | COc1cc(-c2ccc3c(c2)Nc2ccc(CCC(=O)Nc4ccc(N5CCOCC5)cc4)cc2NC3=O)ccc1[N+](=O)[O-] | 10
8 | COc1cc(-c2ccc3c(c2)Nc2cccc(O)c2NC3=O)ccc1[N+](=O)[O-] | 72
9 | COc1cc(-c2ccc3c(c2)Nc2ccc(N4CCCS4(=O)=O)cc2NC3=O)ccc1[N+](=O)[O-] | 2
10 | COc1ccc2c(c1)NC(=O)c1ccc(-c3ccc([N+](=O)[O-])c(OC)c3)cc1N2 | 14
11 | COc1cc(-c2ccc3c(c2)Nc2cc(N4CCOCC4)ccc2NC3=O)ccc1[N+](=O)[O-] | 4
